Target: T1, rat GLP-1 receptor (Rattus norvegicus, UniProt P32301)
T1 construct: expressed in transfected cells; host or cells: Dihydrofolate reductase-deficient Chinese hamster ovary cell line DXB-11; membrane preparation
T1 sequence (P32301 22-463): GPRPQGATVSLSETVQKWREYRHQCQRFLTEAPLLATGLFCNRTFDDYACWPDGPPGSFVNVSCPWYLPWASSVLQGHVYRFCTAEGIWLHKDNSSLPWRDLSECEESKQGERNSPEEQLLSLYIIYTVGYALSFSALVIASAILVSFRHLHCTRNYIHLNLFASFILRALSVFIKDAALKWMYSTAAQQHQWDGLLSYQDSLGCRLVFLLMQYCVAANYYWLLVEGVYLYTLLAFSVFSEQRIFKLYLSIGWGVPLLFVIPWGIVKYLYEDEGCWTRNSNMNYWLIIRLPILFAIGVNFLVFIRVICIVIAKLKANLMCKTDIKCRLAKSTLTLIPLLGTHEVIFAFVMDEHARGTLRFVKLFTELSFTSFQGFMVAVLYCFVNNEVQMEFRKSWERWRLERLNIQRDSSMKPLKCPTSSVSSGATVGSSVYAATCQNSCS
Test: In vitro GLP-1 agonist cAMP assay (particle concentration fluorescence immunoassay, membrane preparation)
Assay type: biochemical
Procedure: Cells were grown to confluency in 10% dialyzed fetal bovine serum/high glucose Dulbecco's Modified Eagle Medium with 0.1% proline at 37° C. The cell were then harvested, and membranes were prepared by first washing the cells with phosphate buffered saline (PBS), then twice with cold buffer (25 mM 4-(2-hydroxyethyl)-1 piperazineethanesulfonic acid (HEPES), 2 mM MgCl2, 1 mM ethylenedinitrilo-tetraacetic acid (EDTA), 20 μg/ml Leupeptin, 1 mM phenylmethyl sulfonyl fluoride (PMSF), 2 μg/ml Aprotinin, 50 μg/ml Trypsin Inhibitor, pH 8.0). The washed cells were resuspended in cold buffer, lysed in a glass Teflon homogenizer and then centrifuged at 35,300 g for 30 minutes at 4° C. The supernatant was removed and the pellet resuspended in cold buffer and homogenized. Two hundred μl aliquots (3.2 mg/ml) were stored at -80° C.
Briefly, 10 μl of membrane prep (80 μg/ml) was preincubated with 10 μl of test compound or reference compound in buffer (25 mM HEPES, 0.2% (w/v) bovine serum albumin (BSA), pH 7.6) at 32° C. for 10 minutes. Five μl of reaction buffer (25 mM HEPES, 0.2% (w/v) BSA, 13 mM (CH3 C00)2 Mg.4H2 O, 4 mM adenosine-5'-triphosphate (ATP), 40 nM guanosine 5'-O-3'thiotriphosphate (GTP-∂-s), 25 mM creatine phosphate, creatine kinase 250 U/ml, 1 mM 3-Isobutyl-1-methyl xanthine (IBMX), pH 7.6) was added and incubated for an additional 30 minutes. Incubations were stopped by adding 25 μl 10 mM EDTA and fluorescent tracer (cAMP-β phycoerythrin conjugate).
This assay, a particle concentration fluorescence immunoassay, was based on the competition between unlabelled cAMP and a fixed amount of fluorescent labelled cAMP for a limited number of binding sites on a cAMP specific antibody. By keeping the quantity of fluorescent ligand and antibody fixed, the amount of fluorescent ligand bound by the antibody was inversely proportional to the concentration of unlabelled cAMP. The antibody-bound cAMP was then captured by anti-rabbit IgG coated assay particles. Separation of the bound antibody fraction was achieved by filtration on Fluoricon®-Ca Assay Plates. After measuring the fluorescence in the pellet, the amount of bound fluorescent cAMP was calculated. The rate of cAMP production (pmol/min/mg) was then determined by interpolation from a standard curve.

## CC[C@H](C)[C@H](NC(=O)[C@H](Cc1ccccc1)NC(=O)[C@H](CCC(=O)O)NC(=O)[C@H](CCCCN)NC(=O)[C@H](C)NC(=O)[C@H](C)NC(=O)[C@H](CCC(N)=O)NC(=O)CNC(=O)[C@H](CCC(=O)O)NC(=O)[C@H](CC(C)C)NC(=O)[C@H](Cc1ccc(O)cc1)NC(=O)[C@H](CO)NC(=O)[C@H](CO)NC(=O)[C@@H](NC(=O)[C@H](CC(=O)O)NC(=O)[C@H](CO)NC(=O)[C@@H](NC(=O)[C@H](Cc1ccccc1)NC(=O)[C@@H](NC(=O)CNC(=O)[C@@H](N)CCC(=O)O)[C@@H](C)O)[C@@H](C)O)C(C)C)C(=O)N[C@@H](C)C(=O)N[C@@H](Cc1c[nH]c2ccccc12)C(=O)N[C@@H](CC(C)C)C(=O)N[C@H](C(=O)N[C@@H](CCCCN)C(=O)NCC(=O)N[C@@H](CCCNC(=N)N)C(N)=O)C(C)C [GLP-1(9-36)NH2]
Dose 0.005 nM
  cAMP produced: 21.165 pmol/min/mg
Dose 0.01 nM
  cAMP produced: 21.743 pmol/min/mg
Dose 0.02 nM
  cAMP produced: 20.678 pmol/min/mg
Dose 0.05 nM
  cAMP produced: 22.602 pmol/min/mg
Dose 0.1 nM
  cAMP produced: 22.033 pmol/min/mg
Dose 0.4 nM
  cAMP produced: 21.460 pmol/min/mg
Dose 1 nM
  cAMP produced: 21.588 pmol/min/mg
Dose 4 nM
  cAMP produced: 21.046 pmol/min/mg
Dose 10 nM
  cAMP produced: 22.320 pmol/min/mg
Dose 100 nM
  cAMP produced: 19.156 pmol/min/mg
